In patent publication US8575107B2, “Clusterin derived peptide” (Compugen Ltd., priority 2008, dated 2013):
Where a SMILES comes first, the peptide text is derived from it.

Tests used:
[1] = system: prostate adenocarcinoma cell line PC3; experiment: MTT assay, CGEN-CL1 and/or paclitaxel on PC3 cells; format: cell-based
Experimental: (§1) 20 μl of MTT (3-(4,5-Dimethyl-2-thiazolyl)-2,5-diphenyl-2H-tetrazolium bromide) solution (Sigma Cat#M5655, lot#085k5322, 1 gr was dissolved in 200 ml H2O and filtered, giving a final concentration of 5 mg/ml) was added to each well and incubated for 4 hours at 37° C. after which the medium was vacuumed and 100 μl of DMSO was added to each well. Absorbance was measured in an ELISA reader at 492 nm.
(§2) A549, PC3 and MCF7 cells were seeded at 6000, 8000 and 10,000 cells per well respectively in 150 μl of media (DMEM medium+5% FBS) in 96 well plates.
(§3) Paclitaxel (Sigma T7402, Lot. 036k1217, Mw 853.9, 5 mg dissolved in 585 μl DMSO to a stock concentration of 10 mM, stored at −20° C.) and/or CGEN-CL1 (1 mg dissolved in 250 μl of sodium bi-carbonate to a stock concentration of 4 mg/ml) were added to the wells in 25 μl of medium (final volume of 200 μl) as detailed in Table 3. The relative growth was normalized to controls where neither paclitaxel nor CGEN-CL1 was added to wells.
(§4) An MTT assay was performed as described above in Example 2.

[2] = system: A549 cells; experiment: MTT viability assay of A549 cells, CGEN-CL1 pre-incubated with helix partner; format: cell-based, human; conditions: 150 nM CGEN-CL1 pre-incubated 30 min with equimolar SEQ ID NO:5
Experimental: In order to evaluate whether the two computationally identified α-helices (CGEN-CL1 (SEQ ID NO: 1) and its helix partner (SEQ ID NO: 5)) bind to each other in the Clusterin protein, a co-incubation of the two peptides was analyzed for its ability to eliminate the biological activity of CGEN-CL1.
Pre-incubation for 30 minutes of 150 nM CGEN-CL1 peptide (SEQ ID NO:1) with an equimolar concentration of the helix partner (SEQ ID NO:5) was carried out at room temperature. CGEN-CL1 peptide (SEQ ID NO:1) alone, or the helix partner (SEQ ID NO:5) alone or the pre-incubated CGEN-CL1 peptide (SEQ ID NO:1) with helix partner (SEQ ID NO:5) were used for viability assay of A549 cells, using MTT assay as described in Example 2 herein.

[3] = system: MCF-7 breast cancer cell lines; experiment: MTT assay, CGEN-CL1 and/or paclitaxel on MCF-7 cells; format: cell-based
Experimental: as §1, §2, §3, §4

[4] = target: T1, recombinant human clusterin (Homo sapiens, UniProt P10909); experiment: BIAcore SPR, CGEN-CL1 co-incubated with partner helix, binding to clusterin; conditions: CGEN-CL1 and SEQ ID NO:5, 10 μM each, preincubated 30 minutes
T1 construct: purchased Biovendor RD172034100
Experimental: Peptide-protein interaction was analyzed using surface plasmon resonance. Analysis of the interaction between CGEN-CL1 [SEQ ID NO:1] and recombinant human clusterin (Biovendor, Modrice, Czech republic cat no: RD172034100) was conducted using the BIAcore biosensor (Pharmacia Biosensor, Uppsala, Sweden). Clusterin was immobilized directly to a CM5 sensor chip (2000 resonance units (RU)). Solution containing either 10 μM of CGEN-CL1 [SEQ ID NO:1] peptide or a mixture of CGEN-CL1 and its partner helix (SEQ ID NO:5), 10 μM each, preincubated for 30 minutes at room temperature, was injected to the BIAcore. As a background, the solutions were also injected onto an empty flow cell with no immobilized ligand and the binding levels achieved were subtracted. Data was analyzed using BIAevaluation software.

[5] = system: SK-MEL melanoma cells; experiment: MTT assay, growth of SK-MEL cells treated with CGEN-CL1; format: cell-based
Experimental: (§5) CGEN-CL1 as synthesized in Example 1 was analyzed for its ability to induce growth arrest in various cancer cell lines, such as: breast cancer cell line MCF-7 (Adenocarcinoma, Breast, HTB-22, ATCC), PC3 (Adenocarcinoma, Prostate, CRL-1435, ATCC), A549 (carcinoma, Lung, CCL-185, ATCC), HT-29 (Colorectal Adenocarcinoma, Colon, HTB-38, ATCC) and SK-mel 5 (Melanoma, Skin, HTB70, ATCC).
SK-MEL 5 cells were seeded at 10,000 cells per well in 150 μl of media (DMEM medium+5% FBS) in a 96 well plate.
(§6) CGEN-CL1 (1 mg dissolved in 2500 of Sodium bi-carbonate to a stock concentration of 4 mg/ml) was added to the wells in 500 of medium (final volume of 2000) as detailed in Table 2. The relative growth was normalized to controls where CGEN-CL1 was not added to wells.
as §1

[6] = system: A549 human non-small cell lung cancer cells; experiment: In vivo A549 mouse xenograft model, CGEN-CL1 with paclitaxel; design: species or system Balb/c Nu/Nu female mice; conditions: A549 tumor bearing BALB/c nu/nu mice; CGEN-CL1 sc daily around tumor + paclitaxel 15 mg/kg IP; vs paclitaxel and vehicle
Experimental: In order to test the in-vivo activity of CGEN-CL1, Balb/c Nu/Nu female mice (10 in each group) were inoculated with 5×10^6 A549 human non-small cell lung cancer cells. Treatment was initiated when tumors reached 400-500 mm^3. One group received 15 mg/kg of paclitaxell (IP once every three days) and CGEN-CL1 [SEQ ID NO:1] (daily injected sub-cutaneously (sc) at the surrounding of the tumor) whereas the second group received paclitaxel and saline (at the same dose and route of administration). Tumor volume was measured every three days.

[7] = system: HT29 colorectal adenocarcinoma cells; experiment: MTT assay, growth of HT29 cells treated with CGEN-CL1; format: cell-based
Experimental: as §5
HT29 cells were seeded at 10,000 cells per well in 150 μl of media (DMEM medium+5% FBS) in a 96 well plate.
as §6, §1

[8] = system: PC3 cells; conditions: MTT
Experimental: PC3 cells were seeded at 8000 cells per well in 150 μl of media (DMEM medium+5% FBS) in a 96 well plate.

[9] = system: lung carcinoma cell line A549; experiment: MTT assay, CGEN-CL1 and/or paclitaxel on A549 cells; format: cell-based, human
Experimental: as §1, §2, §3, §4

T1 sequence (P10909 23-449): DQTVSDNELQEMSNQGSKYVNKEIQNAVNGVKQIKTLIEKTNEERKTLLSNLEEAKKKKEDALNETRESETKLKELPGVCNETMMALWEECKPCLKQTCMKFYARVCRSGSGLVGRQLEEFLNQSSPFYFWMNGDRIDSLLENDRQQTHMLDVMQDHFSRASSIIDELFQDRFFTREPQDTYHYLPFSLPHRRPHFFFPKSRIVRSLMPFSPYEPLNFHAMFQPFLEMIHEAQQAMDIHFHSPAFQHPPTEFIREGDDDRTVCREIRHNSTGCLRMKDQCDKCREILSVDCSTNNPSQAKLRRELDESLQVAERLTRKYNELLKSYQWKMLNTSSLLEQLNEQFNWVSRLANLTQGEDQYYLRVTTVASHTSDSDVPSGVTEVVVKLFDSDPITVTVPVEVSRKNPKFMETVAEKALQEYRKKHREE

**Q.** For `CC[C@H](C)[C@H](NC(=O)[C@H](CCCNC(=N)N)NC(=O)[C@H](CC(=O)O)NC(=O)CNC(=O)[C@H](CC(N)=O)NC(=O)[C@H](CCSC)NC(=O)[C@H](Cc1c[nH]c2ccccc12)NC(=O)[C@H](Cc1ccccc1)NC(=O)[C@H](Cc1ccc(O)cc1)NC(=O)[C@H](Cc1ccccc1)NC(C)=O)C(=O)N[C@@H](CC(=O)O)C(=O)N[C@@H](CO)C(=O)N[C@@H](CC(C)C)C(=O)N[C@@H](CC(C)C)C(=O)N[C@@H](CCC(=O)O)C(=O)N[C@@H](CC(N)=O)C(=O)N[C@@H](CC(=O)O)C(=O)N[C@@H](CCCNC(=N)N)C(=O)N[C@@H](CCC(N)=O)C(=O)N[C@@H](CCC(N)=O)C(=O)N[C@H](C(N)=O)[C@@H](C)O` [CGEN-CL1] (Ac-FYFWMNGDRIDSLLENDRQQT-NH2), which “CGEN-CL1 concentration that sensitized cells to paclitaxel at sub-minimal doses (as little as)” value [1] is on record?
**A.** 7 nM

**Q.** What about the growth inhibition ([1]; 60 nM CGEN-CL1 combined with 5 nM paclitaxel) of the same compound?
**A.** same growth inhibition rates as the growth inhibition achieved by 45 nM of paclitaxel alone

**Q.** What about the “growth inhibition relative to 45 nM of paclitaxel alone” value ([1]; 60 nM CGEN-CL1 combined with 45 nM paclitaxel) of the same compound?
**A.** 1.5 fold

**Q.** And the “effect between CGEN-CL1 and paclitaxel” value ([1]; CGEN-CL1 at different concentrations with different doses of paclitaxel)?
**A.** synergistic effect

**Q.** And the “biological effect (growth inhibition) of CGEN-CL1 in the presence of partner helix peptide” value [2]?
**A.** abolished

**Q.** What about the “Relative Growth” value ([3]; CGEN-CL1 7.1 nM + Paclitaxel 2.25 nM) of the same compound?
**A.** 0.62

**Q.** What about the “Relative Growth” value ([3]; CGEN-CL1 7.1 nM + Paclitaxel 30.00 nM) of the same compound?
**A.** 0.31

**Q.** What about the “Relative Growth” value ([3]; CGEN-CL1 7.1 nM alone) of the same compound?
**A.** 0.68

**Q.** And the “Relative Growth” value ([3]; CGEN-CL1 22.3 nM + Paclitaxel 2.25 nM)?
**A.** 0.53

**Q.** And the “Relative Growth” value ([3]; CGEN-CL1 22.3 nM + Paclitaxel 30.00 nM)?
**A.** 0.28

**Q.** And the “Relative Growth” value ([3]; CGEN-CL1 22.3 nM alone)?
**A.** 0.61

**Q.** What about the “Relative Growth” value ([3]; CGEN-CL1 63.2 nM + Paclitaxel 2.25 nM) of the same compound?
**A.** 0.46

**Q.** What about the “Relative Growth” value ([3]; CGEN-CL1 63.2 nM + Paclitaxel 30.00 nM) of the same compound?
**A.** 0.24

**Q.** And the “Relative Growth” value ([3]; CGEN-CL1 63.2 nM alone)?
**A.** 0.48

**Q.** And the “Relative Growth” value ([3]; CGEN-CL1 185.9 nM + Paclitaxel 2.25 nM)?
**A.** 0.45

**Q.** And the “Relative Growth” value ([3]; CGEN-CL1 185.9 nM + Paclitaxel 30.00 nM)?
**A.** 0.25

**Q.** What about the “Relative Growth” value ([3]; CGEN-CL1 185.9 nM alone) of the same compound?
**A.** 0.49

**Q.** And the “Relative Growth” value ([3]; CGEN-CL1 557.6 nM + Paclitaxel 2.25 nM)?
**A.** 0.42

**Q.** And the “Relative Growth” value ([3]; CGEN-CL1 557.6 nM + Paclitaxel 30.00 nM)?
**A.** 0.23

**Q.** What about the “Relative Growth” value ([3]; CGEN-CL1 557.6 nM alone) of the same compound?
**A.** 0.46

**Q.** And the “effect of timing on cell growth” value ([3]; CGEN-CL1 added 24 hours after 30 nM paclitaxel vs concomitantly)?
**A.** need for lower concentrations of CGEN-CL1 to achieve the same effect

**Q.** What about the “effect on growth inhibition when given in combination” value ([3]; CGEN-CL1 and paclitaxel in combination) of the same compound?
**A.** synergistic effect

**Q.** What about the “CGEN-CL1 concentration giving further inhibition of cell proliferation (as little as)” value ([3]; at 30 nM Paclitaxel) of the same compound?
**A.** 7.1 nM

**Q.** And the “binding of CGEN-CL1 to recombinant Clusterin after co-incubation with partner helix” value [4]?
**A.** completely abolished the binding

**Q.** What about the “growth inhibition as revealed by cellular viability” value [5] of the same compound?
**A.** evoked growth inhibition

**Q.** And the “reduction in tumor volume” value [6]?
**A.** 25-30%

**Q.** What about the “growth inhibition as revealed by cellular viability” value [7] of the same compound?
**A.** evoked growth inhibition

**Q.** And the “concentration evoking the maximal effect (as little as)” value [8]?
**A.** 15 nM

**Q.** What about the “CGEN-CL1 concentration that sensitizes cells to sub-minimal concentrations of paclitaxel (as little as)” value [9] of the same compound?
**A.** 1 nM

**Q.** And the “maximal effect (inhibition) in combination with paclitaxel” value ([9]; CGEN-CL1 + paclitaxel)?
**A.** 73%

**Q.** What about the “maximal effect (inhibition) alone” value ([9]; single agent) of the same compound?
**A.** 48%
